Experimental data taken from paper PMC6257796, “Effects of Eupatilin and Jaceosidin on Cytochrome P450 Enzyme Activities in Human Liver Microsomes” (Molecules, 2010).

How the values were obtained:
Format in all cases: in vitro ADME
[1] = biological target: T1, CYP1A2 (Homo sapiens, UniProt P05177); assay: Cocktail probe assay in pooled human liver microsomes: phenacetin O-deethylation (IC50); details: 50 μM phenacetin
T1 construct: pooled human liver microsomes (0.25 mg/mL); tissue BD Gentest Co. H161; host or cells: pooled human liver microsomes
T1 sequence (P05177 1-516): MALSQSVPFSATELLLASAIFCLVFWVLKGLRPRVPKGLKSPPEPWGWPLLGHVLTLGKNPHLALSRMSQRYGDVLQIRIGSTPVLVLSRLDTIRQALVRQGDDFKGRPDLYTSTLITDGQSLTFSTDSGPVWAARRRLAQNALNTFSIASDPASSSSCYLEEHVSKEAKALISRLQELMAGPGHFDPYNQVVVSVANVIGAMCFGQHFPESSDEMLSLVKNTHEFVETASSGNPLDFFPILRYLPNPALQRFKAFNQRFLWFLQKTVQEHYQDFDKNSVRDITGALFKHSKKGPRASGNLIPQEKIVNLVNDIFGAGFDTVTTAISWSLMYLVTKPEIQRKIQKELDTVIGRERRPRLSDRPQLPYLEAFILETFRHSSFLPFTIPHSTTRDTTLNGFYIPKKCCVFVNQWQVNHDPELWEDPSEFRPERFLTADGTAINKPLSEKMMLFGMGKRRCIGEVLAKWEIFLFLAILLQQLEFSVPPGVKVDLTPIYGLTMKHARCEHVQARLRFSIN
Protocol: (§1) The inhibitory potencies (IC50 values) of eupatilin and jaceosidin were determined with CYP assays in the presence and absence of eupatilin and jaceosidin (final concentrations of 0.1−100 μM with acetonitrile concentration of less than 0.5% v/v) using pooled human liver microsomes. Phenacetin O-deethylase, coumarin 7-hydroxylase, amodiaquine N-deethylase, diclofenac hydroxylase, [S]-mephenytoin 4'-hydroxylase, bufuralol 1'-hydroxylase, and midazolam 1'-hydroxylase activities were determined as probe activities for CYP1A2, CYP2A6, CYP2C8, CYP2C9, CYP2C19, CYP2D6, and CYP3A, respectively, using cocktail incubation and tandem mass spectrometry. The incubation mixtures were prepared in a total volume of 200 μL as follows: pooled human liver microsomes (0.25 mg/mL), 1.3 mM NADPH, 3.3 mM MgCl2, 50 mM potassium phosphate buffer (pH 7.4), and a cocktail of probe substrates and various concentrations of eupatilin or jaceosidin (0.1−100 μM). […] After a 3 min preincubation at 37 °C, the reactions were initiated by adding NADPH and incubated for 20 min at 37 °C with shaking in a water bath. After incubation, the reaction was stopped by placing the tubes on ice and adding 100 μL of ice-cold acetonitrile containing internal standards (0.5 μg/mL [^13C,^15N]-acetaminophen for acetaminophen and N-desethylamodiaquine, 0.5 μg/mL [^2H5]-7-hydroxycoumarin for 7-hydroxycoumarin, 2.0 μg/mL [^13C6]-4-hydoxydiclofenac for 4-hydoxydiclofenac, 0.5 μg/mL [^2H3]-4'-hydoxymephenytoin for 4-hydoxymephenytoin and 1'-hydroxymidazolam, and 0.5 μg/mL [^2H7]-1'-hydroxybufuralol for 1'-hydroxybufuralol). The incubation mixtures were then centrifuged at 10,000× g for 5 min. All incubations were performedin triplicate.
(§2) To evaluate the effect of preincubation on inhibitory potency, eupatilin and jaceosidin (0.1−100 μM) were preincubated for 30 min with NADPH, buffer, and microsomes before the addition of the CYP probe substrates. The reaction was started by addition of the cocktail of probe substrates.
(§3) All seven metabolites produced from the cocktail of CYP isoform-specific substrates were simultaneously determined by LC/MS/MS. The system consisted of a tandem quadrupole mass spectrometer (TSQ Quantum Access, ThermoFisher Scientific, CA, USA) coupled with a Nanospace SI-2 LC system. The separation was performed on an Atlantis dC18 column (5 μm, 2.1 mm i.d. × 100 mm, Waters, Waltham, MA, USA) using the gradient elution of a mixture of 5% methanol in 0.1% formic acid (mobile phase A) and 95% methanol in 0.1% formic acid (mobile phase B) at a flow rate of 0.25 mL/min: 10% mobile phase B for 1 min, 10% to 95% mobile phase B for 1 min, 95% mobile phase B for 5 min. […] Quantification was performed by selected reaction monitoring (SRM) of the [M+H]^+ ion and the related product ion for each metabolite. […]

[2] = biological target: T2, CYP2A6 (Homo sapiens, UniProt P11509); assay: Cocktail probe assay in pooled human liver microsomes: coumarin 7-hydroxylation (IC50); details: for IC50, coumarin 7-hydroxylation (CYP2A6): pooled human liver microsomes, 2.5 μM coumarin
T2 construct: pooled human liver microsomes (0.25 mg/mL); tissue BD Gentest Co. H161; host or cells: pooled human liver microsomes
T2 sequence (P11509 1-494): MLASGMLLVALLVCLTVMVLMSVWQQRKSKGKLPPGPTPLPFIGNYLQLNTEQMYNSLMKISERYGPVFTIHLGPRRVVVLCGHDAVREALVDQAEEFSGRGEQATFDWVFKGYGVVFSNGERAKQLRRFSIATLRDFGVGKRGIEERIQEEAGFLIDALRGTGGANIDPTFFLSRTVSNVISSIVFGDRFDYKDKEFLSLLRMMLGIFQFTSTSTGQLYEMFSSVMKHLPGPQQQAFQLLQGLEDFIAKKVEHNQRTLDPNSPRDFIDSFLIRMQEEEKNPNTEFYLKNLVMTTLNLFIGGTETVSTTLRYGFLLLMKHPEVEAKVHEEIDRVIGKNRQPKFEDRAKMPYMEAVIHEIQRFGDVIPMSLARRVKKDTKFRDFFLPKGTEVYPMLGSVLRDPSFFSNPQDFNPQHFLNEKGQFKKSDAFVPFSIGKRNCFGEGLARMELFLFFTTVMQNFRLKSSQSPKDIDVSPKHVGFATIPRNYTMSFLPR
Protocol: as §1, §2
(§4) All seven metabolites produced from the cocktail of CYP isoform-specific substrates were simultaneously determined by LC/MS/MS. The system consisted of a tandem quadrupole mass spectrometer (TSQ Quantum Access, ThermoFisher Scientific, CA, USA) coupled with a Nanospace SI-2 LC system. The separation was performed on an Atlantis dC18 column (5 μm, 2.1 mm i.d. × 100 mm, Waters, Waltham, MA, USA) using the gradient elution of a mixture of 5% methanol in 0.1% formic acid (mobile phase A) and 95% methanol in 0.1% formic acid (mobile phase B) at a flow rate of 0.25 mL/min: 10% mobile phase B for 1 min, 10% to 95% mobile phase B for 1 min, 95% mobile phase B for 5 min. The column and autosampler temperatures were 50 °C and 4 °C, respectively. After 1.5 min, the LC eluant was diverted from waste to the mass spectrometer that was fitted with an electrospray ionization (ESI) source and operated in the positive ion mode. The ESI source settings for the ionization of the metabolites were as follows: electrospray voltage, 5.0 kV; vaporizer temperature, 420 °C; capillary temperature 360 °C; sheath gas pressure, 35 psi; auxiliary gas pressure, 10 psi. Quantification was performed by selected reaction monitoring (SRM) of the [M+H]^+ ion and the related product ion for each metabolite. The analytical data were processed using Xcalibur® software (ThermoFisher Scientific).
(§5) The IC50 values (concentration of inhibitor causing 50% inhibition of the original enzyme activity) were calculated using WinNonlin software, a non-linear regression analysis program (Pharsight, Mountain View, CA, USA). The apparent kinetic parameters for inhibitory potential (Ki values) were estimated from the fitted curves using Enzyme Kinetics Ver. 1.3 program (Systat Software Inc., San Jose, CA, USA).

[3] = biological target: T3, CYP2C8 (Homo sapiens, UniProt P10632); assay: Cocktail probe assay in pooled human liver microsomes: amodiaquine N-deethylation (IC50); details: 2.0 μM amodiaquine, no preincubation
T3 construct: pooled human liver microsomes (0.25 mg/mL); tissue BD Gentest Co. H161; host or cells: pooled human liver microsomes
T3 sequence (P10632 1-490): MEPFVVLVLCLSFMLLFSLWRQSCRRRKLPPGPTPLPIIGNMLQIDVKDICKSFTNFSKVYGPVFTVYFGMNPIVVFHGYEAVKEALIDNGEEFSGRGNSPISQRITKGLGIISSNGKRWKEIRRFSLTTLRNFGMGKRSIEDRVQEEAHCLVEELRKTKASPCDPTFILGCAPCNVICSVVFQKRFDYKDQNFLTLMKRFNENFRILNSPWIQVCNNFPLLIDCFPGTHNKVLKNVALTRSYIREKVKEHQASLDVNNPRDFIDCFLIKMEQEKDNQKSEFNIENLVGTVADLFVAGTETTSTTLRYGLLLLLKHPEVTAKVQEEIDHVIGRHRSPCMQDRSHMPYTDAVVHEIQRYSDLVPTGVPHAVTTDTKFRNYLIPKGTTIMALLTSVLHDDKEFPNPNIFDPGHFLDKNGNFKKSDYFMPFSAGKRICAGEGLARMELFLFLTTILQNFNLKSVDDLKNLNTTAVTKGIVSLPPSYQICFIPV
Protocol: as §1, with “After incubation, the reaction was stopped by placing the tubes on ice and adding 100 μL of ice-cold acetonitrile containing internal standards (0.5 μg/mL [^13C,^15N]-acetaminophen for acetaminophen and N-desethylamodiaquine, 0.5 μg/mL [^2H5]-7-hydroxycoumarin for 7-hydroxycoumarin, 2.0 μg/mL [^13C6]-4-hydoxydiclofenac for 4-hydoxydiclofenac, 0.5 μg/mL [^2H3]-4'-hydoxymephenytoin for 4-hydoxymephenytoin and 1'-hydroxymidazolam, and 0.5 μg/mL [^2H7]-1'-hydroxybufuralol for 1'-hydroxybufuralol). The incubation mixtures were then centrifuged at 10,000× g for 5 min. All incubations were performedin triplicate.” left out
All seven metabolites produced from the cocktail of CYP isoform-specific substrates were simultaneously determined by LC/MS/MS. […] Quantification was performed by selected reaction monitoring (SRM) of the [M+H]^+ ion and the related product ion for each metabolite. […]

[4] = biological target: T4, CYP2C9 (Homo sapiens, UniProt P11712); assay: Cocktail probe assay in pooled human liver microsomes: diclofenac 4-hydroxylation (IC50); details: 10 μM diclofenac
T4 construct: pooled human liver microsomes (0.25 mg/mL); tissue BD Gentest Co. H161; host or cells: pooled human liver microsomes
Protocol: as §1, §2, §3

[5] = biological target: T5, CYP2C19 (Homo sapiens, UniProt P33261); assay: Cocktail probe assay in pooled human liver microsomes: [S]-mephenytoin 4'-hydroxylation (IC50); details: 50 μM [S]-mephenytoin
T5 construct: pooled human liver microsomes (0.25 mg/mL); tissue BD Gentest Co. H161; host or cells: pooled human liver microsomes
Protocol: as §1, §2, §3

[6] = biological target: T6, CYP2D6 (Homo sapiens, UniProt P10635); assay: Cocktail probe assay in pooled human liver microsomes: bufuralol 1'-hydroxylation (IC50); details: 5.0 μM bufuralol
T6 construct: pooled human liver microsomes (0.25 mg/mL); tissue BD Gentest Co. H161; host or cells: pooled human liver microsomes
Protocol: as §1, §2, §3

[7] = test system: CYP3A; assay: Cocktail probe assay in pooled human liver microsomes: midazolam 1'-hydroxylation (IC50); details: for IC50, midazolam 1'-hydroxylation (CYP3A): pooled human liver microsomes, 2.5 μM midazolam
Protocol: as §1, §2, §4, §5

[8] = biological target: T1, CYP1A2; assay: Kinetic analysis (Ki, inhibition type) in human liver microsomes: phenacetin O-deethylation; details: pooled human liver microsomes
Protocol: (§6) The Ki values and inhibition types (competitive, noncompetitive, uncompetitive, or mixed) were determined for eupatilin and jaceosidin using Lineweaver plots, Dixon plots, and secondary reciprocal plots.
(§7) The reactions were initiated by addition of NADPH at 37 °C and stopped after 15 min by placing the incubation tubes on ice and adding 100 μL of ice-cold methanol containing an internal standard. The incubation mixtures were centrifuged at 10,000' g for 5 min, and aliquots (5 μL) of the supernatants were analyzed by liquid chromatography/tandem mass spectrometry (LC/MS/MS).
as §4, §5

[9] = biological target: T3, CYP2C8; assay: Kinetic analysis (Ki, inhibition type) in human liver microsomes: amodiaquine N-deethylation; details: pooled human liver microsomes
Protocol: as §6, §7, §4, §5

[10] = biological target: T4, CYP2C9; assay: Kinetic analysis (Ki, inhibition type) in human liver microsomes: diclofenac 4-hydroxylation; details: pooled human liver microsomes; for Inhibition type, diclofenac 4-hydroxylation (CYP2C9): Lineweaver, Dixon and secondary reciprocal plots
Protocol: as §6, §7, §4, §5

[11] = biological target: T5, CYP2C19; assay: Kinetic analysis (Ki, inhibition type) in human liver microsomes: [S]-mephenytoin 4'-hydroxylation; details: pooled human liver microsomes; for Inhibition type, S-mephenytoin 4'-hydroxylation (CYP2C19): Lineweaver, Dixon and secondary reciprocal plots
Protocol: as §6, §7, §4, §5

[12] = biological target: T6, CYP2D6; assay: Kinetic analysis (Ki, inhibition type) in human liver microsomes: bufuralol 1'-hydroxylation; details: pooled human liver microsomes
Protocol: as §6, §7, §4, §5

[13] = with 30 min preincubation in presence of NADPH
[14] = Lineweaver, Dixon and secondary reciprocal plots

T6 sequence (P10635 whole entry): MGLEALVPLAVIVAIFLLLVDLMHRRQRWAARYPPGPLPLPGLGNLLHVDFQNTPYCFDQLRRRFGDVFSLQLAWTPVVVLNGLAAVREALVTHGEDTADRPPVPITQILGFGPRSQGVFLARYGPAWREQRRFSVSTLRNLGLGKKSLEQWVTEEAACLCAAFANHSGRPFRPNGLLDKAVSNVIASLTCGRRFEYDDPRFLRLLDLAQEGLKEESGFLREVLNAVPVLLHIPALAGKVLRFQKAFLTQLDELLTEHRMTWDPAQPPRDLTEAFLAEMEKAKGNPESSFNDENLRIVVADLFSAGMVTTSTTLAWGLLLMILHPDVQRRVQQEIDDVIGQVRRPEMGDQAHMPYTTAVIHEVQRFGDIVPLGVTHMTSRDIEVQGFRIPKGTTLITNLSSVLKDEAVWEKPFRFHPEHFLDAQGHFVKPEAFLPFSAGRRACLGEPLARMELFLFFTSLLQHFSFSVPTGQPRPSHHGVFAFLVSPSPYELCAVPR
T5 sequence (P33261 whole entry): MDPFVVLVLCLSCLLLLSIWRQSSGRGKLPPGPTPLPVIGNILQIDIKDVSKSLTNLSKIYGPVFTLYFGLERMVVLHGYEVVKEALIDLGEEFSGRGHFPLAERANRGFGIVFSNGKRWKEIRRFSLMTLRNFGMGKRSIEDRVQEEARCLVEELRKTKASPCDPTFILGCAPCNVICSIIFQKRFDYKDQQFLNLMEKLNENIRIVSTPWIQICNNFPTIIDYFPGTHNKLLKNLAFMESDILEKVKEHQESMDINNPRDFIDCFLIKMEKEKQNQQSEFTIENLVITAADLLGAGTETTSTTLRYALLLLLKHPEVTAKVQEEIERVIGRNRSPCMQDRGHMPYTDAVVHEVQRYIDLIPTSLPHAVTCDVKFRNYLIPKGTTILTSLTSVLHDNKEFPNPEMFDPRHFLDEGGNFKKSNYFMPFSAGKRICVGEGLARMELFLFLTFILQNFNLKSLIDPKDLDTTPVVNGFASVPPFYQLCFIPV
T4 sequence (P11712 whole entry): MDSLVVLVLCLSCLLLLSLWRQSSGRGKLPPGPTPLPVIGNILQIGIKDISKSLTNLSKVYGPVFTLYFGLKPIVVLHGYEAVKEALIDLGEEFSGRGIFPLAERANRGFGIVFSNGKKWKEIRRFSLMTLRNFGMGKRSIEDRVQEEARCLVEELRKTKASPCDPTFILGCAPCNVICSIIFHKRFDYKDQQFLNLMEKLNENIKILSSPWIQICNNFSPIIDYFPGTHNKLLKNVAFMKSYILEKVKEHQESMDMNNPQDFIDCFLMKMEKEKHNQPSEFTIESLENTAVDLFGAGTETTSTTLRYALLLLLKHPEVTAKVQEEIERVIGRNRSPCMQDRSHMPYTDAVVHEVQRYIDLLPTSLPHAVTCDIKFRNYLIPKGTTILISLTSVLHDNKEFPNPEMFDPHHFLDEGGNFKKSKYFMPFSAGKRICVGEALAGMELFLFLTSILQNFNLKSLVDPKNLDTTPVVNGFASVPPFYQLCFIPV

COc1cc(-c2cc(=O)c3c(O)c(OC)c(O)cc3o2)ccc1O [jaceosidin, 5,7-dihydroxy-2-(4-hydroxy-3-methoxyphenyl)-6-methoxychromen-4-one]
IC50 ([1]; no preincubation): 5.3 ± 0.81 µM | IC50 [1, 13]: 6 ± 0.45 µM | Inhibition of CYP2A6-catalyzed coumarin 7-hydroxylation at the highest concentration tested ([2]; 100 μM, human liver microsomes): negligible inhibition | IC50, coumarin 7-hydroxylation (CYP2A6) ([2]; no preincubation): No inhibition | IC50, coumarin 7-hydroxylation (CYP2A6) [2, 13]: No inhibition | IC50 [3]: > 100 µM | IC50 ([4]; no preincubation): 10.2 ± 1 µM | IC50 [4, 13]: 8.6 ± 0.91 µM | IC50 ([5]; no preincubation): 64.9 ± 4.8 µM | IC50 [5, 13]: 69.8 ± 3.8 µM | IC50 ([6]; no preincubation): 79.1 ± 1.8 µM | IC50 [6, 13]: 82.3 ± 2.4 µM | Inhibition of CYP3A4-catalyzed midazolam 1'-hydroxylation at the highest concentration tested ([7]; 100 μM, human liver microsomes): negligible inhibition | IC50, midazolam 1'-hydroxylation (CYP3A) ([7]; no preincubation): No inhibition | IC50, midazolam 1'-hydroxylation (CYP3A) [7, 13]: No inhibition | Ki ([8]; 10-100 μM phenacetin): 3.8 ± 0.23 µM | Inhibition type, phenacetin O-deethylation (CYP1A2) [8, 14]: competitive | Ki ([9]; 0.5-5 μM amodiaquine): 109 ± 7.3 µM | Inhibition type, amodiaquine N-deethylation (CYP2C8) [9, 14]: competitive | Ki ([10]; 1-50 μM diclofenac): 6.4 ± 0.25 µM | Inhibition type, diclofenac 4-hydroxylation (CYP2C9) [10]: competitive | Inhibition type, diclofenac 4-hydroxylation (CYP2C9) ([10]; listed as Jaceosidin): competitive | Ki ([11]; 10-100 μM [S]-mephenytoin): 45.1 ± 4.2 µM | Inhibition type, S-mephenytoin 4'-hydroxylation (CYP2C19) [11]: mixed | Inhibition type, S-mephenytoin 4'-hydroxylation (CYP2C19) ([11]; listed as Jaceosidin): mixed type | Ki ([12]; 0.5-5 μM bufuralol): 57.8 ± 3.6 µM | Inhibition type, bufuralol 1'-hydroxylation (CYP2D6) [12, 14]: competitive
